# Earlier results, collected in patent US20250356483A1, “Quality Control Of In-Vitro Analysis Sample Output” (Sanofi, priority 2022, published 2025).
# System: liver cells
# Details: CPZ@60 micro moles
compound,measurement,value
"CN(C)CCCN1c2ccccc2Sc2ccc(Cl)cc21 [CPZ, Chlorpromazine]",known toxic effect of reference compound (positive control),toxic to liver cells and triggers cholestasis
